By IC50 is commonly meant the concentration that inhibits the measured activity by half. Higher therefore signals weaker potency.

Each structure is given as a SMILES string.

The text below walks through data of US9045491B2, “Thienyl [3,2-D] pyrimidin-4-one compounds, preparation method, pharmaceutical compositions and use thereof” (SHANGHAI INSTITUTE OF MATERIA MEDICA, CHINESE ACADEMY OF …, priority 2011, dated 2015).

Holding throughout (type): biochemical
One assay has as its target T1, human DPP IV (Homo sapiens, UniProt P27487).
T1 construct: extracellular fragment of protease DPP IV (aa29-766); made in house; host or cells: baculovirus expression system Bac-to-Bac
Nature of the assay: DPP IV activity screening (Ala-Pro-AMC fluorescence). As for the experimental part: (§1) Screening method: dipeptidyl peptidase IV (DPP IV) activity screening, dipeptidyl peptidase 7 (DPP 7), dipeptidyl peptidase 8 (DPP 8) activity screening, and dipeptidyl peptidase 9 (DPP 9) activity screening.
Instruments: Microplate Reader (PerkinElmer, USA).
The linear change of fluorescence value at 460 nm in unit time was dynamically measured and DPP IV activity was obtained by calculation.
(§2) Sample treatment: the sample was dissolved in DMSO and stored in low temperature. The concentration of DMSO in the final system was controlled so that the detected activity was not affected.
(§3) The activity of sample was tested under the selected single concentration from preliminary screening, for example, 20 μg/mL. […] The software for calculation was Graphpad Prism 4 and the model used for fitting was sigmoidal dose-response (variable slope). For most inhibitor screening models, the bottom and top of the fitting curve were set to 0 and 100.

A further assay has as its target T2, Human DPP 9 (Homo sapiens, UniProt Q86TI2).
T2 construct: made in house; host or cells: insect cells, baculovirus Bac-to-Bac
The assay is described as follows: DPP 9 activity screening (Ala-Pro-AMC fluorescence). The settings on record: N.I. = No Inhibition.
Description: as §1
(§4) Materials: human DPP IV, obtained extracellular fragment of protease DPP IV (aa29-766), was expressed and purified by our laboratory using baculovirus expression system Bac-to-Bac (purchased from GIBCO company) in accordance with the conventional experimental technology; human DPP 8 was obtained in insect cells by our laboratory using baculovirus expression system Bac-to-Bac (purchased from GIBCO company) in accordance with the conventional experimental technology; Human DPP 9 was obtained in insect cells by our laboratory using baculovirus expression system Bac-to-Bac (purchased from GIBCO company) in accordance with the conventional experimental technology; and the substrate Ala-Pro-AMC was synthesized by GL Biochem (Shanghai) Ltd.
(§5) Principle of Activity test: DPP IV, DPP 8 and DPP 9 can specifically hydrolyze the substrate Ala-Pro-AMC to form product AMC, and AMC is excited by 355 nm of UV light to generate 460 nm of emission light. The linear change of fluorescence value at 460 nm in unit time was dynamically measured and DPP IV activity was obtained by calculation.
as §2, §3

Assay [1] concerns the target dipeptidyl peptidase 7 (DPP 7) (Homo sapiens, UniProt Q9UHL4). Nature of the assay: DPP 7 activity screening. The settings on record: N.I. = No Inhibition. As to the method:
as §1, §2, §3

A further assay has as its target T3, human DPP 8 (Homo sapiens, UniProt Q6V1X1).
T3 construct: made in house; host or cells: insect cells, baculovirus Bac-to-Bac
Nature of the assay: DPP 8 activity screening (Ala-Pro-AMC fluorescence). The settings on record: N.I. = No Inhibition.
Description: as §1, §4, §5, §2, §3

T3 sequence (Q6V1X1 whole entry): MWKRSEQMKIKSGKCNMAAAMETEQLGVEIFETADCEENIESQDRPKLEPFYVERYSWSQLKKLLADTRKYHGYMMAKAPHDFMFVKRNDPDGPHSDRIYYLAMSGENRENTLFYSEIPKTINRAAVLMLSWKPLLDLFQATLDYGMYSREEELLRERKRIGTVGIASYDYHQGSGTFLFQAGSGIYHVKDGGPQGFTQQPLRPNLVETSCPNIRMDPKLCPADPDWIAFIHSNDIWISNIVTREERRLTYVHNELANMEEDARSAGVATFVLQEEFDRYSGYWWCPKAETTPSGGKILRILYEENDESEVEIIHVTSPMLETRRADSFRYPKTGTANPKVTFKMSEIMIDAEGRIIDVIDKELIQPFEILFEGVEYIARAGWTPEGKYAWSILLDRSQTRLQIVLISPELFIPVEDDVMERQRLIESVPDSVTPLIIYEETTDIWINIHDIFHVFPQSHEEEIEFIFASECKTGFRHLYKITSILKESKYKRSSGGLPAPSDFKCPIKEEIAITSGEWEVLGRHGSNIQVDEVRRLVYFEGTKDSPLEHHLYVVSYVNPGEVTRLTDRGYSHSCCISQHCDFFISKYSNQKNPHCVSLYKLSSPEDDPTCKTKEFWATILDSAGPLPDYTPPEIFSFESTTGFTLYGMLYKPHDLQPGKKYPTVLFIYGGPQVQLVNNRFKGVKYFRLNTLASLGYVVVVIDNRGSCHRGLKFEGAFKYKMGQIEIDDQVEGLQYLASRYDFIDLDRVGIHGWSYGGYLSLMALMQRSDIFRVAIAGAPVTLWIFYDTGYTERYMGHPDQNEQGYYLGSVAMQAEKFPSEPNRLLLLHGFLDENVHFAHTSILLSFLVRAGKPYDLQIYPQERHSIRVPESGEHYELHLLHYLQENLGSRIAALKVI
T1 sequence (P27487 29-766): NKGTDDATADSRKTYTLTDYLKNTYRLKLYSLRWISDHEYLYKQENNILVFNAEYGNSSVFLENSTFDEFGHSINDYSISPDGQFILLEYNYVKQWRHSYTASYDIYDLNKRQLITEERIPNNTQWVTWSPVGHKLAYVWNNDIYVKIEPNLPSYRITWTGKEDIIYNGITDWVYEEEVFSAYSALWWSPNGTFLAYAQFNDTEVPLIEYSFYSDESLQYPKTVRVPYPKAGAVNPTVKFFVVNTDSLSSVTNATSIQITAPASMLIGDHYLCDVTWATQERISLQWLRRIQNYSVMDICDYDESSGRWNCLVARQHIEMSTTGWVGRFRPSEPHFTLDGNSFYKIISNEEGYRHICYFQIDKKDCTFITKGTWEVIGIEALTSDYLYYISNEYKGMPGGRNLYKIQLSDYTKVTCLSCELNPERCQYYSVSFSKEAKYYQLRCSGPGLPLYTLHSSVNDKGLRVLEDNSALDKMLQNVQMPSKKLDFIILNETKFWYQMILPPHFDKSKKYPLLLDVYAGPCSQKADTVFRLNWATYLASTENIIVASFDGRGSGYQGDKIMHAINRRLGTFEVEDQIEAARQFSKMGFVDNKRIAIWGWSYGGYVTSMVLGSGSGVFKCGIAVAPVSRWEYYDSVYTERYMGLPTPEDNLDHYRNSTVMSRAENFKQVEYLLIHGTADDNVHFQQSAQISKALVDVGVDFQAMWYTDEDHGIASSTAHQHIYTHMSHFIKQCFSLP
T2 sequence (Q86TI2 whole entry): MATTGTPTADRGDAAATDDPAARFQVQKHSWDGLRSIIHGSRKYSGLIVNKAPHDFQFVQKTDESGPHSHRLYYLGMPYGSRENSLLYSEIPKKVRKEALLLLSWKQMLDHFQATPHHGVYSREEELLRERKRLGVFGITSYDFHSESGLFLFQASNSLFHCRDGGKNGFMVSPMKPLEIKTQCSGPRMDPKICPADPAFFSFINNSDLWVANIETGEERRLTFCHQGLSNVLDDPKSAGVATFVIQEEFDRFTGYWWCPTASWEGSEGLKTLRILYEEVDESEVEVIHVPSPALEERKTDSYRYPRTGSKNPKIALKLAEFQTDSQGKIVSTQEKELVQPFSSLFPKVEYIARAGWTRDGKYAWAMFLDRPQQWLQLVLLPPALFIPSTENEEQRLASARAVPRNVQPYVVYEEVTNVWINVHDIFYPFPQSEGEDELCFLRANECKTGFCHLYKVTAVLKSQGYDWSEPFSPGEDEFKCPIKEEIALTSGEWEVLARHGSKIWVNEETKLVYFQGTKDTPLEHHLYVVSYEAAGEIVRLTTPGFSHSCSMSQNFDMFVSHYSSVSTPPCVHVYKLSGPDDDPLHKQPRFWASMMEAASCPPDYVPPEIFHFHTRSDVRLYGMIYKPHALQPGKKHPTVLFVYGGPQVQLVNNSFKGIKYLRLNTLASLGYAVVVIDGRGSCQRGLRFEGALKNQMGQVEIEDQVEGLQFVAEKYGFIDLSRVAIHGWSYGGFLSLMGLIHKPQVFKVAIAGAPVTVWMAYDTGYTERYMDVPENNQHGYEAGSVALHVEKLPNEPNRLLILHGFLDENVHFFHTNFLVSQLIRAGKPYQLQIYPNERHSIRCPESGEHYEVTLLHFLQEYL

For the molecule `N#Cc1ccccc1Cn1c(N2CCC[C@@H](N)C2)nc2c(Cl)c(Cl)sc2c1=O` [Compound 10, (R)-2-((2-(3-aminopiperidin-1-yl)-6,7-dichloro-4-oxothieno[3,2-d]pyrimidin-3(4H)-yl)methyl)benzonitrile], the IC50 against human DPP IV was 90 nM.
For the molecule `CCOC(=O)CCNC(=O)c1csc2c(=O)n(Cc3ccccc3C#N)c(N3CCC[C@@H](N)C3)nc12` [Compound 88, (R)-ethyl 3-(2-(3-aminopiperidin-1-yl)-3-(2-cyanobenzyl)-4-oxo-3,4-dihydrothieno[3,2-d]pyrimidine-7-carboxamido)propanoate], on Human DPP 9, the “DPP 9 IC50” value is “N.I”. Further, the half-inhibitory concentration (IC50) against human DPP IV came out at 14.8 nM; against human DPP 8 it was 54900 nM. Further, the “DPP 7 IC50” value in assay [1] was “N.I”.
On to `N#Cc1ccccc1Cn1c(N2CCC[C@@H](N)C2)nc2c(C(=O)NCCCO)csc2c1=O` [Compound 93, (R)-2-(3-aminopiperidin-1-yl)-3-(2-cyanobenzyl)-N-(3-hydroxypropyl)-4-oxo-3,4-dihydrothieno[3,2-d]pyrimidine-7-carboxamide], for which the “DPP 9 IC50” value at Human DPP 9 was “N.I”. Besides, the IC50 against human DPP IV amounted to 14.8 nM; against human DPP 8, 60700 nM. Also, in assay [1], the “DPP 7 IC50” value was “N.I”.
As to `N#Cc1ccccc1Cn1c(N2CCC[C@@H](N)C2)nc2c3c(sc2c1=O)CCCC3` [Compound 27, (R)-2-((2-(3-aminopiperidin-1-yl)-4-oxo-6,7,8,9-tetrahydrobenzo[4,5]thieno-[3,2-d]pyrimidin-3(4H)-yl)methyl)-benzonitrile], the IC50 on human DPP IV was 35.5 nM.
For `N#Cc1ccccc1Cn1c(N2CCC[C@@H](N)C2)nc2cc(C(=O)N3CCC[C@H]3CO)sc2c1=O` [Compound 128, 2-((2-((R)-3-aminopiperidin-1-yl)-6-((S)-2-(hydroxymethyl)pyrrolidine-1-carbonyl)-4-oxothieno[3,2-d]pyrimidin-3(4H)-yl)methyl)benzonitrile], on Human DPP 9, the “DPP 9 IC50” value was “N.I”. The IC50 against human DPP IV worked out at 30.7 nM; against human DPP 8, 39000 nM. The “DPP 7 IC50” value in assay [1] was “N.I”.
In the case of `CS(=O)(=O)CCNC(=O)c1cc2nc(N3CCC[C@@H](N)C3)n(Cc3ccccc3C#N)c(=O)c2s1` [Compound 126, (R)-2-(3-aminopiperidin-1-yl)-3-(2-cyanobenzyl)-N-(2-(methylsulfonyl)-ethyl)-4-oxo-3,4-dihydrothieno[3,2-d]-pyrimidine-6-carboxamide], on Human DPP 9, the “DPP 9 IC50” value is reported as “N.I”. For the same molecule, the results for the IC50 against human DPP IV and on human DPP 8 were 20.1 nM and 55900 nM, respectively. Besides, the “DPP 7 IC50” value in assay [1] was “N.I”.
`N#Cc1ccccc1Cn1c(N2CCC[C@@H](N)C2)nc2c(Cl)csc2c1=O` [Compound 9, (R)-2-((2-(3-aminopiperidin-1-yl)-7-chloro-4-oxothieno[3,2-d]pyrimidin-3-(4H)-yl)methyl)benzonitrile]: on human DPP IV, the concentration for half-maximal inhibition (IC50) was 36.8 nM.
Consider `CCOC(=O)CCCNC(=O)c1csc2c(=O)n(Cc3ccccc3C#N)c(N3CCC[C@@H](N)C3)nc12` [Compound 89, (R)-ethyl 4-(2-(3-aminopiperidin-1-yl)-3-(2-cyanobenzyl)-4-oxo-3,4-dihydrothieno[3,2-d]pyrimidine-7-carboxamido)butanoate], for which, on Human DPP 9, the “DPP 9 IC50” value is “N.I”. Moreover, the IC50 was 14.3 nM against human DPP IV and 39400 nM at human DPP 8. In addition, in assay [1], the “DPP 7 IC50” value is listed as “N.I”.
At human DPP IV, `N#Cc1ccccc1Cn1c(N2CCC[C@@H](N)C2)nc2cc(F)sc2c1=O` [Compound 1, (R)-2-((2-(3-aminopiperidin-1-yl)-6-fluoro-4-oxothieno[3,2-d]pyrimidin-3(4H)-yl)methyl)benzonitrile] gave an IC50 of 34.7 nM.
On human DPP IV, `N#Cc1ccccc1Cn1c(N2CCC[C@@H](N)C2)nc2cc(C(Br)Br)sc2c1=O` [Compound 98, (R)-2-((2-(3-aminopiperidin-1-yl)-6-(dibromomethyl)-4-oxothieno[3,2-d]-pyrimidin-3(4H)-yl)methyl)benzonitrile] yielded an IC50 of 9.95 nM. The “DPP 7 IC50” value in assay [1] is “N.I”.
Regarding `COC(=O)[C@@H]1CCCN1C(=O)c1csc2c(=O)n(Cc3ccccc3C#N)c(N3CCC[C@@H](N)C3)nc12` [Compound 91, (S)-methyl 1-(2-((R)-3-aminopiperidin-1-yl)-3-(2-cyanobenzyl)-4-oxo-3,4-dihydrothieno[3,2-d]pyrimidine-7-carbonyl)pyrrolidine-2-carboxylate], the “DPP 9 IC50” value on Human DPP 9 is reported as “N.I”. Further, the 50% inhibitory concentration (IC50) came to 36.4 nM on human DPP IV and 88000 nM against human DPP 8. The “DPP 7 IC50” value in assay [1] was “N.I”.
With `N#Cc1ccccc1Cn1c(N2CCC[C@@H](N)C2)nc2c(C(=O)N[C@H]3CCOC3=O)csc2c1=O` [Compound 92, 2-((R)-3-aminopiperidin-1-yl)-3-(2-cyanobenzyl)-4-oxo-N-((S)-2-oxotetrahydrofuran-3-yl)-3,4-dihydrothieno[3,2-d]pyrimidine-7-carboxamide], on Human DPP 9, the “DPP 9 IC50” value was “N.I”. Besides, the figures for the IC50 against human DPP IV and at human DPP 8 were 21.7 nM and 76700 nM, respectively. The “DPP 7 IC50” value in assay [1] is “N.I”.
The molecule `N#Cc1ccccc1Cn1c(N2CCC[C@@H](N)C2)nc2cc(Cl)sc2c1=O` [Compound 8, (R)-2-((2-(3-aminopiperidin-1-yl)-6-chloro-4-oxothieno[3,2-d]pyrimidin-3 (4H)-yl)methyl)benzonitrile] displayed an IC50 at human DPP IV of 45.6 nM.
Consider `N#Cc1ccccc1Cn1c(N2CCC[C@@H](N)C2)nc2c(Br)csc2c1=O` [Compound 4, (R)-2-((2-(3-aminopiperidin-1-yl)-7-bromo-4-oxothieno[3,2-d]pyrimidin-3(4H)-yl)methyl)benzonitrile], for which, on human DPP IV, the half-inhibitory concentration (IC50) was 8.78 nM.
As for `CCOC(=O)C1CCN(C(=O)c2cc3nc(N4CCC[C@@H](N)C4)n(Cc4ccccc4C#N)c(=O)c3s2)CC1` [Compound 129, (R)-ethyl 1-(2-(3-aminopiperidin-1-yl)-3-(2-cyanobenzyl)-4-oxo-3,4-dihydrothieno[3,2-d]pyrimidine-6-carbonyl)piperidine-4-carboxylate], on Human DPP 9, the “DPP 9 IC50” value is on record as “N.I”. Further, the IC50 against human DPP IV came out at 33.9 nM; on human DPP 8, 16300 nM. Moreover, the “DPP 7 IC50” value in assay [1] is “N.I”.
On to `N#Cc1ccccc1Cn1c(N2CCC[C@@H](N)C2)nc2cc(C(=O)N[C@H]3CCOC3=O)sc2c1=O` [Compound 127, 2-((R)-3-aminopiperidin-1-yl)-3-(2-cyanobenzyl)-4-oxo-N-((S)-2-oxotetrahydrofuran-3-yl)-3,4-dihydrothieno[3,2-d]pyrimidine-6-carboxamide], for which the “DPP 9 IC50” value at Human DPP 9 was “N.I”. Also, the IC50 against human DPP IV stood at 24.6 nM; against human DPP 8, 52700 nM. For the same molecule, the “DPP 7 IC50” value in assay [1] is reported as “N.I”.
With `COC(=O)[C@@H]1CCCN1C(=O)c1cc2nc(N3CCC[C@@H](N)C3)n(Cc3ccccc3C#N)c(=O)c2s1` [Compound 125, (S)-methyl 1-(2-((R)-3-aminopiperidin-1-yl)-3-(2-cyanobenzyl)-4-oxo-3,4-dihydrothieno[3,2-d]pyrimidine-6-carbonyl)pyrrolidine-2-carboxylate], the IC50 stood at 172000 nM on Human DPP 9, 33.8 nM at human DPP IV and 15500 nM against human DPP 8. Moreover, the “DPP 7 IC50” value in assay [1] is recorded as “N.I”.
`N#Cc1ccccc1Cn1c(N2CCC[C@@H](N)C2)nc2cc(C(=O)NCCO)sc2c1=O` [Compound 123, (R)-2-(3-aminopiperidin-1-yl)-3-(2-cyanobcnzyl)-N-(2-hydroxyethyl)-4-oxo-3,4-dihydrothieno[3,2-d]-pyrimidine-6-carboxamide]: the “DPP 9 IC50” value on Human DPP 9 is “N.I”. For the same molecule, the figures for the 50% inhibitory concentration (IC50) on human DPP IV and at human DPP 8 were 19.8 nM and 223000 nM, respectively. Moreover, in assay [1], the “DPP 7 IC50” value was “N.I”.
